13 compounds from patent publication US20160280688A1, “SUBSTITUTED PHENYLALANINE DERIVATIVES” (BAYER PHARMA AKTIENGESELLSCHAFT, priority 2013, published 2016) can be followed below.

Common to all, as to format: biochemical
One test concerns the target T1, human factor XIa (Homo sapiens, UniProt P03951).
T1 construct: purchased Kordia
The test is described as follows: Measurement of FXIa inhibition (fluorogenic peptide substrate Boc-Glu(OBzl)-Ala-Arg-AMC). As to conditions: factor XIa from Kordia, 15 min preincubation, 30 min at 22° C., fluorescence. The protocol: To determine the factor XIa inhibition of the substances according to the invention, a biochemical test system is used which utilizes the reaction of a peptidic factor XIa substrate to determine the enzymatic activity of human factor XIa. Here, factor XIa cleaves from the peptic factor XIa substrate the C-terminal aminomethylcoumarin (AMC), the fluorescence of which is measured. The determinations are carried out in microtitre plates.
(§1) Test substances are dissolved in dimethyl sulphoxide and serially diluted in dimethyl sulphoxide (3000 μM to 0.0078 μM; resulting final concentrations in the test: 50 μM to 0.00013 μM). In each case 1 μl of the diluted substance solutions are placed into the wells of white microtitre plates from Greiner (384 wells). Subsequently, the following are added successively: 20 μl of assay buffer (50 mmol/l Tris buffer pH 7.4; 100 mmol/l sodium chloride; 5 mmol/l calcium chloride; 0.1% bovine serum albumin) and 20 μl of factor XIa from Kordia (0.45 nM in assay buffer). After 15 min of incubation, the enzyme reaction is started by addition of 20 μl of the factor XIa substrate Boc-Glu(OBzl)-Ala-Arg-AMC dissolved in assay buffer (10 μM in assay buffer) from Bachem, the mixture is incubated at room temperature (22° C.) for 30 min and fluorescence is then measured (excitation: 360 nm, emission: 460 nm). The measured emissions of the test batches with test substance are compared to those of control batches without test substance (only dimethyl sulphoxide instead of test substance in dimethyl sulphoxide), and IC50 values are calculated from the concentration/activity relationships.

The test system of a further test is human and animal plasma. The test is described as follows: Determination of the anticoagulatory activity: activated partial thromboplastin time (aPTT) in plasma. The following applies: in vitro in plasma, C.K. Prest kit, 3 min at 37° C. How it is done:
The anticoagulatory activity of the test substances is determined in vitro in human and animal plasma (for example mouse, rat, rabbit, pig and dog plasma). To this end, blood is drawn off in a mixing ratio of sodium citrate/blood of 1:9 using a 0.11 molar sodium citrate solution as receiver. Immediately after the blood has been drawn off, it is mixed thoroughly and centrifuged at about 4000 g for 15 minutes. The supernatant is pipetted off.
The activated partial thromboplastin time (aPTT) is determined in the presence of varying concentrations of test substance or the corresponding solvent using a commercial test kit (C.K. Prest from Diagnostica Stago). The test compounds are incubated with the plasma and the PTT reagent (cephalin, kaolin) at 37° C. for 3 minutes. Coagulation is then started by addition of a 25 mM aqueous calcium chloride solution, and the time when coagulation occurs is determined. The concentration of test substance which brings about a 1.5-fold extension of the aPTT is determined Activity data from this test are listed in Table B below: […]

In a further test the target is T2, human plasmin (Homo sapiens, UniProt P00747).
T2 construct: purchased Kordia
The test can be described thus: Measurement of plasmin inhibition (fluorogenic peptide substrate MeOSuc-Ala-Phe-Lys-AMC). The following applies: plasmin from Kordia, 15 min preincubation, 30 min at 22° C., fluorescence. How it is done: The plasmin inhibition of the inventive substances is determined using a biochemical test system which utilizes the reaction of a peptidic plasmin substrate to determine the enzymatic activity of human plasmin. Here, plasmin cleaves from the peptic plasmin substrate the C-terminal aminomethylcoumarin (AMC), the fluorescence of which is measured. The determinations are carried out in microtitre plates.
as §1, with “plasmin” for “factor XIa”, “(0.3 μg/ml” for “(0.45 nM”, “MeOSuc-Ala-Phe-Lys-AMC” for “Boc-Glu(OBzl)-Ala-Arg-AMC”, “(150” for “(10”, “ICso” for “IC50”

Structures can show the parent of a compound that is named as a salt.

For orientation: IC50 means the concentration that inhibits the measured activity by half.

T2 sequence (P00747 581-810 limits assumed): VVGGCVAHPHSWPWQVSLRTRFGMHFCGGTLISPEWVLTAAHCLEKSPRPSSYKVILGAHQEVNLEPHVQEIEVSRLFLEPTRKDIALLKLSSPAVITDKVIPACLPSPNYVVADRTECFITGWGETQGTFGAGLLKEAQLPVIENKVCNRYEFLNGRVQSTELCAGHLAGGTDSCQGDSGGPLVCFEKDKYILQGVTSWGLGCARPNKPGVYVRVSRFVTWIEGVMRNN
T2 sequence (P00747 97-580 partner limits assumed): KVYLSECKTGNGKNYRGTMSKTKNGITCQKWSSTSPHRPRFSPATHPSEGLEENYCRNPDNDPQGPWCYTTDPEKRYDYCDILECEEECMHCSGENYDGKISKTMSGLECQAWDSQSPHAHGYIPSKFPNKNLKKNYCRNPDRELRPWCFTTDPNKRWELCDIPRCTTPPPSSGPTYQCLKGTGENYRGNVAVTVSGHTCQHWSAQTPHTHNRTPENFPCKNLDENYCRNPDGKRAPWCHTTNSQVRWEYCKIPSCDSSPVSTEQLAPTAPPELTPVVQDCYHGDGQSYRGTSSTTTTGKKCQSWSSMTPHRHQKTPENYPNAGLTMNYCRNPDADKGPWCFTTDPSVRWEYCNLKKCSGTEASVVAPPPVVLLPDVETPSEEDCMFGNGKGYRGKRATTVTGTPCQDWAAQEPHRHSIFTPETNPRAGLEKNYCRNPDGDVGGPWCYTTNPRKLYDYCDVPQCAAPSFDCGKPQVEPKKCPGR
T1 sequence (P03951 388-625 limits assumed): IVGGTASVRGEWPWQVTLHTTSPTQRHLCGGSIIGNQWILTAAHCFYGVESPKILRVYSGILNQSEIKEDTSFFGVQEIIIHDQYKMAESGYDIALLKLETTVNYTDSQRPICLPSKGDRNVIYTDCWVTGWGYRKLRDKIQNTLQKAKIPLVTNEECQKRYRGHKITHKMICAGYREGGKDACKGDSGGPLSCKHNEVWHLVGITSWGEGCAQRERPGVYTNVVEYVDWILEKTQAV
T1 sequence (P03951 19-387 partner limits assumed): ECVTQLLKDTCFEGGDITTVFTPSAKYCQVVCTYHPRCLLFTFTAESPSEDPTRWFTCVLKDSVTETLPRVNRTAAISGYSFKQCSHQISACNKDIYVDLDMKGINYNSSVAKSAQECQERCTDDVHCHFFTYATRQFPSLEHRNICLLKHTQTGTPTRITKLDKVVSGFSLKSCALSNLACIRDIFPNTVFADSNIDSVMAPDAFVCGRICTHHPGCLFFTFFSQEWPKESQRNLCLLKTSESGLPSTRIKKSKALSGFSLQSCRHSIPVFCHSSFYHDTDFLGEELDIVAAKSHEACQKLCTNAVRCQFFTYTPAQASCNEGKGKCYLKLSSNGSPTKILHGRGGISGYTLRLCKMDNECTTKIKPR

In the case of `Cc1cc2oc(C3CC3)nc2cc1-c1ccc(C[C@H](NC(=O)[C@H]2CC[C@H](CN)CC2)C(=O)Nc2ccc(-c3nnn[nH]3)cc2)cc1.Cl` (relative stereo) [Example 26, N-alpha-{[trans-4-(Aminomethyl)cyclohexyl]carbonyl}-4-(2-cyclopropyl-6-methyl-1,3-benzoxazol-5-yl)-N-[4-(1H-tetrazol-5-yl)phenyl]-L-phenylalaninamide hydrochloride], the results for the IC50 against human factor XIa and against human plasmin were 1.4 nM and 2.7 nM, respectively. In addition, the “aPTT (concentration of test substance which brings about a 1.5-fold extension of the aPTT)” value with human and animal plasma came out at 0.18 µmol/L.
With `Cc1cc2[nH]c(C(C)C)nc2cc1-c1ccc(C[C@@H](NC(=O)C2CCC(CN)CC2)C(=O)Nc2ccc3[nH]c(=O)[nH]c3c2)cc1` (single isomer, unassigned; enantiomer 1) [Example 38, N-alpha-{[trans-4-(Aminomethyl)cyclohexyl]carbonyl}-4-(2-isopropyl-6-methyl-1H-benzimidazol-5-yl)-N-(2-oxo-2,3-dihydro-1H-benzimidazol-5-yl)-D-phenylalaninamide hydrochloride (Enantiomer 1)], the 50% inhibitory concentration (IC50) turned out to be 37 nM against human factor XIa and 20 nM at human plasmin.
In the same order, the values of `Cc1cc2[nH]c(C(C)C)nc2cc1-c1ccc(C[C@H](NC(=O)C2CCC(CN)CC2)C(=O)Nc2ccc3[nH]c(=O)[nH]c3c2)cc1` (single isomer, unassigned; enantiomer 2) [Example 39, N-alpha-{[trans-4-(Aminomethyl)cyclohexyl]carbonyl}-4-(2-isopropyl-6-methyl-1H-benzimidazol-5-yl)-N-(2-oxo-2,3-dihydro-1H-benzimidazol-5-yl)-L-phenylalaninamide hydrochloride (Enantiomer 2)] are 1.1 nM and 0.64 nM.
Take `Cc1cc2nc[nH]c2cc1-c1ccc(C[C@H](NC(=O)C2CCC(CN)CC2)C(=O)Nc2ccc(-c3nn[nH]n3)cc2)cc1` (stereo partly drawn) [Example 1, N-alpha-{[trans-4-(Aminomethyl)cyclohexyl]carbonyl}-4-(5-methyl-1H-benzimidazol-6-yl)-N-[4-(2H-tetrazol-5-yl)phenyl]-L-phenylalaninamide hydrochloride]: the IC50 on human factor XIa was 0.9 nM; at human plasmin, 22 nM. In the test with human and animal plasma, the “aPTT (concentration of test substance which brings about a 1.5-fold extension of the aPTT)” value came to 0.07 µmol/L.
`Cc1cc2nc[nH]c2cc1-c1ccc(C[C@H](NC(=O)[C@H]2CC[C@H](CN)CC2)C(=O)Nc2ccc3c(=O)[nH][nH]c3c2)cc1` [Example 8, N-alpha-{[trans-4-(Aminomethyl)cyclohexyl]carbonyl}-4-(5-methyl-1H-benzimidazol-6-yl)-N-(3-oxo-2,3-dihydro-1H-indazol-6-yl)-L-phenylalaninamide hydrochloride]: the values for the IC50 against human factor XIa and at human plasmin were 6 nM and 21 nM, respectively.
`NC[C@H]1CC[C@H](C(=O)N[C@@H](Cc2ccc(-c3ccc4c(c3)NC(=O)CC4)cc2)C(=O)Nc2ccc(-c3nn[nH]n3)cc2)CC1` [Example 9, N-alpha-{[trans-4-(Aminomethyl)cyclohexyl]carbonyl}-4-(2-oxo-1,2,3,4-tetrahydroquinolin-7-yl)-N-[4-(2H-tetrazol-5-yl)phenyl]-L-phenylalaninamide hydrochloride]: the 50% inhibitory concentration (IC50) is 3.7 nM against human factor XIa and 25 nM against human plasmin.
In the same order, the values of `NC[C@H]1CC[C@H](C(=O)N[C@@H](Cc2ccc(-c3ccc4c(c3)NC(=O)CC4)cc2)C(=O)Nc2ccc(-c3nn[nH]n3)c(F)c2)CC1` [Example 12, N-alpha-{[trans-4-(Aminomethyl)cyclohexyl]carbonyl}-N-[3-fluoro-4-(2H-tetrazol-5-yl)phenyl]-4-(2-oxo-1,2,3,4-tetrahydroquinolin-7-yl)-L-phenylalaninamide hydrochloride] are 2.4 nM and 5.9 nM.
As to `Cc1cc2[nH]c(C(C)C)nc2cc1-c1ccc(C[C@H](NC(=O)[C@H]2CC[C@H](CN)CC2)C(=O)Nc2ccc3[nH]c(=O)[nH]c3c2)cc1` [Example 19, N-alpha-{[trans-4-(Aminomethyl)cyclohexyl]carbonyl}-4-(2-isopropyl-6-methyl-1H-benzimidazol-5-yl)-N-(2-oxo-2,3-dihydro-1H-benzimidazol-5-yl)-L-phenylalaninamide], the half-inhibitory concentration (IC50) was found to be 3.1 nM against human factor XIa and 1.3 nM against human plasmin.
In the case of `Cc1cc2[nH]c(C3CC3)nc2cc1-c1ccc(C[C@H](NC(=O)[C@H]2CC[C@H](CN)CC2)C(=O)Nc2cc(Cl)c3[nH]c(=O)[nH]c3c2)cc1` [Example 20, N-alpha-{[trans-4-(Aminomethyl)cyclohexyl]carbonyl}-N-(7-chloro-2-oxo-2,3-dihydro-1H-benzimidazol-5-yl)-4-(2-cyclopropyl-6-methyl-1H-benzimidazol-5-yl)-L-phenylalaninamide], the IC50 was found to be 0.9 nM against human factor XIa and 0.4 nM at human plasmin. Besides, the “aPTT (concentration of test substance which brings about a 1.5-fold extension of the aPTT)” value with human and animal plasma came to 0.26 µmol/L.
The corresponding values for `Cc1nc2[nH]c(C3CC3)nc2cc1-c1ccc(C[C@H](NC(=O)[C@H]2CC[C@H](CN)CC2)C(=O)Nc2ccc3[nH]c(=O)[nH]c3c2)cc1` [Example 21, N-alpha-{[trans-4-(Aminomethyl)cyclohexyl]carbonyl}-4-(2-cyclopropyl-5-methyl-1H-imidazo[4,5-b]pyridin-6-yl)-N-(2-oxo-2,3-dihydro-1H-benzimidazol-5-yl)-L-phenylalaninamide] are 0.7 nM, 0.4 nM and 0.3 µmol/L.
The corresponding values for `Cc1cc2[nH]c(C3CC3)nc2cc1-c1ccc(C[C@H](NC(=O)[C@H]2CC[C@H](CN)CC2)C(=O)Nc2cc(F)c3c(=O)[nH][nH]c3c2)cc1` [Example 22, N-alpha-{[trans-4-(Aminomethyl)cyclohexyl]carbonyl}-4-(2-cyclopropyl-6-methyl-1H-benzimidazol-5-yl)-N-(4-fluoro-3-oxo-2,3-dihydro-1H-indazol-6-yl)-L-phenylalaninamide hydrochloride] are 0.5 nM, 0.6 nM and 0.18 µmol/L.
The corresponding values for `NC[C@H]1CC[C@H](C(=O)N[C@@H](Cc2ccc(-c3cc4nc(C5CC5)[nH]c4cc3Cl)cc2)C(=O)Nc2ccc3[nH]c(=O)[nH]c3c2)CC1` [Example 23, N-alpha-{[trans-4-(Aminomethyl)cyclohexyl]carbonyl}-4-(6-chloro-2-cyclopropyl-1H-benzimidazol-5-yl)-N-(2-oxo-2,3-dihydro-1H-benzimidazol-5-yl)-L-phenylalaninamide hydrochloride] are 2.3 nM, 0.95 nM and 0.27 µmol/L.
On to `Cc1cc2nc(C(C)C)[nH]c2cc1-c1ccc(C[C@H](NC(=O)[C@H]2CC[C@H](CN)CC2)C(=O)Nc2ccc(-c3nnc(C(F)(F)C(F)(F)C(=O)O)[nH]3)cc2)cc1` [Example 24, 3-[5-(4-{[N-{[trans-4-(Aminomethyl)cyclohexyl]carbonyl}-4-(2-isopropyl-6-methyl-1H-benzimidazol-5-yl)-L-phenylalanyl]amino}phenyl)-4H-1,2,4-triazol-3-yl]-2,2,3,3-tetrafluoropropanoic acid hydrochloride], for which the concentration for half-maximal inhibition (IC50) on human factor XIa was 0.5 nM; against human plasmin it was 1.4 nM.
